Data taken from patent US10829509B2, “Pure heptasulfated disaccharides having improved oral bioavailability” (OPKO Pharmaceuticals, LLC., priority 2016, dated 2020).
Entries after “also recorded” stand apart in the source; their conditions may differ.

Tests used:
[1] = system: allergic sheep challenged with Ascaris suum antigen; test: Antigen-induced early and late airway responses (EAR, LAR), pulmonary airflow resistance RL, in allergic sheep; assay type: in vivo
Experimental: (§1) Pulmonary airflow resistance was measured by taking allergic sheep previously verified as dual bronchoconstrictor responders to Ascaris suum antigen. The sheep were intubated with a cuffed nasotracheal tube and pulmonary airflow resistance (RL) was measured by the esophageal balloon catheter technique. Airway responsiveness was determined by first securing cumulative dose response curves to inhaled carbachol (a constrictor agonist) by measuring RL before and after inhalation of buffered saline and after each administration of 10 breaths of increasing concentrations of carbachol (0.25, 0.5, 1.0, 2.0 and 4.0% wt/vol solution). Airway responsiveness was measured by determining the cumulative provocation dose (PD400) of carbachol (in breath units) that increased RL to 400% above baseline. One breath unit was defined as one breath of 1% carbachol solution.
To illustrate the effectiveness of the formulations according to the invention to treat and alleviate allergen related diseases and conditions, including but not limited to the specific diseases and conditions recited herein, sheep were assessed in multiple experiments which compared various formulations containing no active ingredient to animals which were provided formulations comprising a compound of formula I (SSS-02). To measure pulmonary airflow resistance, the sheep were intubated with a cuffed nasotracheal tube and pulmonary airflow resistance (RL) was measured by the esophageal balloon catheter technique. These methods are accepted and well known methods found in the literature.
(§2) For airway studies, each animal's baseline airway responsiveness (PD400) was determined and then, on different experimental days, the test sheep underwent airway challenge with Ascaris suum antigen. RL was measured to establish baseline, then measured again immediately after antigen challenge and hourly for an eight hour period and then a post challenge PD400 was measured 24 hours after antigen challenge. In each of the Figures presented herein, FIGS. 1A, 2A, 3A etc. present day two data measured on an hourly basis for the eight hour period and contain control data (closed circles) and drug treatment data (open circles or triangles (closed or open)). The drug treatment experiments were conducted on the same animals used in the control studies but after a period of several weeks following the day 3 PD400 measurements. FIGS. 1B, 2B, 3B etc. contain the day one baseline PD400 data and day three PD400 data following antigen challenge in control or drug treated animals.
(§3) Data were expressed or may be expressed as (a) mean+/−SE % change of RL and (b) PD400 in breath units. Data were also expressed as (c) % protection of Early Airway Response (EAR, for 0-4 hours) and Late Airway Response (LAR, for 4-8 hours), as estimated by area under the curve for EAR and LAR respectively. And (d) AHR %

[2] = system: allergic sheep challenged with Ascaris suum antigen; test: Post-antigen airway hyperresponsiveness (AHR), PD400 of inhaled carbachol, in allergic sheep; assay type: in vivo
Experimental: as §1
To assess airway responsiveness, cumulative dose response curves to inhaled carbachol were performed by measuring RL before and after inhalation of buffered saline and after each administration of 10 breaths of increasing concentrations of carbachol (0.25, 0.5, 1.0, 2.0, and 4.0% wt/vol solution). Airway responsiveness was measured by determining the cumulative provocation dose (PD400) of carbachol (in breath units) that increased RL to 400% above baseline. One breath unit was defined as one breath of 1% carbachol solution.
as §2, §3
Thus, the numbers in the Figures as presented were obtained by the formula: Baseline PD400-drugantigenPD400 was x-y;Baseline PD400-ControlantigenPD400 was x-z. x-y/x-z×100=n. 100−n=X % protection in AHR.

[3] = 0.5 mg/kg QD x 4 days oral versus i.v., sheep, listed as 2,5-anhydro-3-O-(α-L-idopyranosyl)-D-mannitol hepta-O-sulfate sodium salt
[4] = i.v. 0.5 mg/kg QD for 4 days, last dose 90 min before antigen, n=5
[5] = inhaled multiple dose 10 mg x 3, n=6
[6] = inhaled multiple dose 10 mg x 3, n=6, sodium salt
[7] = inhaled single dose 10 mg, 30 min before antigen, n=5
[8] = oral 0.5 mg/kg BID x 7 doses, last dose 90 min before antigen, n=5
[9] = oral 0.5 mg/kg x 3 doses, one every 12 h, antigen 90 min after last dose, n=8
[10] = oral 1 mg/kg x 3 doses, one every 12 h, antigen 90 min after last dose, n=8
[11] = oral liquid 0.5 mg/kg QD for 4 days, last dose 90 min before antigen, n=5
[12] = single oral dose 0.5 mg/kg, 90 min before antigen, n=5
[13] = single oral dose 1 mg/kg, 90 min before antigen, n=5

In the case of `O=S(=O)([O-])OC[C@@H]1O[C@@H](O[C@H]2[C@H](OS(=O)(=O)[O-])[C@@H](COS(=O)(=O)[O-])O[C@@H]2COS(=O)(=O)[O-])[C@H](OS(=O)(=O)[O-])[C@@H](OS(=O)(=O)[O-])[C@@H]1OS(=O)(=O)[O-].[Na+].[Na+].[Na+].[Na+].[Na+].[Na+].[Na+]` [SSS-056-01, 2,5-anhydro-3-O-(α-L-idopyranose)-D-mannitol-hepta-O-sulfate-hepta sodium salt], the “inhibition of EAR” value [1, 4] is reported as 77%, the “inhibition of LAR” value [1, 4] is reported as 92% and the “inhibition of LAR” value [1, 5] is reported as 75%. For the same molecule, the “effect on EAR” value [1, 6] was “without an effect; also recorded: no significant cumulative effect”, the “effect on LAR (in words)” value [1, 6] was “did have an effect on LAR; also recorded: did inhibit LAR” and the “effect on EAR, LAR and AHR” value ([1]; inhaled single dose 5 mg, 30 min before antigen, n=5) was “ineffective”. For the same molecule, the “effect on EAR” value [1, 7] was “without an effect”, the “inhibition of LAR” value [1, 7] was 75% and the “effect on EAR, LAR and AHR” value ([1]; oral 0.25 mg/kg x 3 doses, one every 12 h, antigen 90 min after last dose, n=8) was “ineffective”. For the same molecule, the “inhibition of EAR” value [1, 8] was 76%, the “inhibition of LAR” value [1, 8] was 96% and the “inhibition of EAR” value [1, 9] was 30%. For the same molecule, the “inhibition of LAR” value [1, 9] was 85%, the “inhibition of EAR” value [1, 10] was 54% and the “inhibition of LAR” value [1, 10] was 87%. For the same molecule, the “inhibition of EAR” value [1, 11] was 77%, the “inhibition of LAR” value [1, 11] was 95% and the “effect on EAR, LAR and AHR” value ([1]; single oral dose 0.25 mg/kg, 90 min before antigen, n=5) was “ineffective”. For the same molecule, the “effect on EAR” value [1, 12] was “without an effect”, the “inhibition of LAR” value [1, 12] was 71% and the “effect on EAR” value [1, 13] was “without an effect”. For the same molecule, the “inhibition of LAR” value [1, 13] was 77%, the “inhibition of AHR” value ([2]; i.v. 0.5 mg/kg QD for 4 days, PD400 24 h post-antigen, n=5) was 100% and the “inhibition of AHR” value [2, 5] was 100%. The “inhibition of AHR” value [2, 7] was 100%, the “inhibition of AHR” value ([2]; oral 0.5 mg/kg BID x 7 doses, n=5) was 100% and the “inhibition of AHR” value ([2]; oral 0.5 mg/kg x 3 doses, one every 12 h, n=8) was 100%. The “inhibition of AHR” value ([2]; oral 1 mg/kg x 3 doses, one every 12 h, n=8) was 100%, the “inhibition of AHR” value ([2]; oral liquid 0.5 mg/kg QD for 4 days, PD400 24 h post-antigen, n=5) was 100% and the “inhibition of AHR” value [2, 12] was 100%. For the same molecule, the “inhibition of AHR” value [2, 13] was 100% and the “bioavailability of oral dose versus intravenous dose” value [3] was “comparable bioavailability”.
